Data set [1] in a line: Tmax value was determined at a dose of 200 mg/kg (i.p.) in Mice. The settings on record: mouse, in vivo, ip. On the set-up: dose 200 mg/kg, route intraperitoneal. It counts as ADME, organism-based.
The nature of data set [2]: Cmax value was determined at a dose of 200 mg/kg (i.p.) in Mice. Type of data set: ADME, organism-based. Details: dose 200 mg/kg, route intraperitoneal. The settings on record: mouse, in vivo, ip.
Data set [3] in a line: Area under curve was determined at a dose of 200 mg/kg (i.p.) in Mice. Type of data set: ADME, organism-based. Details: dose 200 mg/kg, route intraperitoneal. The settings on record: mouse, in vivo, ip.
The next data set relates to U-251. Nature of the data set: In vitro cytotoxic activity tested against human CNS (U251) cell line. Type of data set: functional.
The test system of data set [4] is SW-620. Nature of the data set: In vitro cytotoxic activity tested against human colon cancer (SW620) cell line. Type of data set: functional.
For data set [5], the system named is M14. The experiment in a line: In vitro cytotoxic activity was tested against human melanoma cancer (M14) cell line. It counts as functional.
Data set [6] deals with SK-OV-3. The experiment in a line: In vitro cytotoxic activity tested against human ovarian cancer (SK-OV3) cell line. It counts as functional.
The test system of data set [7] is DU-145. Nature of the data set: In vitro cytotoxic activity tested against human prostate cancer (DU145) cell line. Type of data set: functional.
Data set [8] deals with A498. The experiment in a line: In vitro cytotoxic activity was tested against human renal cancer (A498) cell line. It counts as functional.
A short description of data set [9]: Average growth inhibition against cell lines was calculated. Type of data set: functional.
Data set [10] has as its system NCI-H522. Nature of the data set: In vitro cytotoxic activity tested against human lung cancer (H-522) cell line.
The test system of data set [11] is NCI/ADR-RES. The experiment in a line: In vitro cytotoxic activity tested against human breast cancer MCF/ADR cell line.
A short description of data set [12]: Half life beta(2,4,6,8h) value was determined at a dose of 200 mg/kg (i.p.) in Mice. It counts as ADME, organism-based. On the set-up: dose 200 mg/kg, route intraperitoneal. The settings on record: mouse, in vivo, ip, read-out: T1/2 beta (converted).
Data set [13] can be described thus: Tmax value was determined at a dose of 100 mg/kg (i.p.) in Mice. Type of data set: ADME, organism-based. The settings on record: mouse, in vivo, ip. On the set-up: dose 100 mg/kg, route intraperitoneal.
A short description of data set [14]: Cmax value was determined at a dose of 100 mg/kg (i.p.) in Mice. It counts as ADME, organism-based. Details: dose 100 mg/kg, route intraperitoneal. Conditions: mouse, in vivo, ip.
Data set [15] in a line: Area under curve was determined at a dose of 100 mg/kg (i.p.) in Mice. Conditions: mouse, in vivo, ip. Details: dose 100 mg/kg, route intraperitoneal. Type of data set: ADME, organism-based.
Data set [16] relates to A498. The experiment in a line: In vitro cytotoxic activity against human renal cancer (A498) cell line. Type of data set: functional.
Data set [17] deals with DU-145. Nature of the data set: In vitro cytotoxic activity against human prostate cancer (DU145) cell line. Type of data set: functional.
The test system of data set [18] is M14. Nature of the data set: In vitro cytotoxic activity against human melanoma cancer (M14) cell line. Type of data set: functional.
The subject of data set [19] is NCI/ADR-RES. The experiment in a line: In vitro cytotoxic activity against human breast cancer MCF/ADR cell line. It counts as functional.
Data set [20] concerns SK-OV-3. Nature of the data set: In vitro cytotoxic activity against human ovarian cancer (SK-OV3) cell line. It counts as functional.
The subject of data set [21] is SW-620. Nature of the data set: In vitro cytotoxic activity against human colon cancer (SW620) cell line. It counts as functional.
Data set [22] has as its system NCI-H522. The experiment in a line: In vitro cytotoxic activity against human lung cancer (H-522) cell line.

For the molecule `CSc1ccc(C2=C(c3ccc(SC)cc3)C(=O)N3CCCC3C2)cc1` (stereo not given), in [1], the time of peak concentration (Tmax) was 1 h. For the same molecule, the Cmax in [2] worked out at 0.86 µM. The exposure (AUC) in data set [3] came out at 2.5 µM·h. The concentration for 50% growth inhibition (GI50) in the data set with U-251 was 5 µM; with SW-620 [4], 7 µM; in the data set with M14 [5], 5 µM; in the data set with SK-OV-3 [6], 2 µM; in the data set on DU-145 [7], 8 µM; with A498 [8] it was 15 µM. Also, the concentration for 50% growth inhibition (GI50) in data set [9] is 8.1 µM; in the data set on NCI-H522 [10], 15 µM; in the data set on NCI/ADR-RES [11], 8 µM.
For `COc1ccc(C2=C(c3ccc(SC)cc3)CC3CCCN3C2=O)cc1OC` (stereo not given), in data set [1], the time of peak concentration (Tmax) turned out to be 0.25 h. Moreover, the peak level in data set [2] (Cmax) was 23 µM. The same molecule yielded an AUC in [3] of 102 µM·h. Also, the concentration for 50% growth inhibition (GI50) with U-251 is 0.3 µM; in the data set with SW-620 [4], 3 µM; in the data set with M14 [5], 5 µM; in the data set on SK-OV-3 [6], 9 µM; in the data set on DU-145 [7], 1.5 µM; in the data set on A498 [8], 8 µM. In addition, the values for the GI50 (in data set [9]; with NCI-H522 [10]; in the data set on NCI/ADR-RES [11]) were 3.6 µM, 2 µM and 0.6 µM, respectively. The half-life in data set [12] was 7.29 h.
In the case of `CSc1ccc(C2=C(c3ccc(F)cc3)C(=O)N3CCCC3C2)cc1` (stereo not given), the Tmax in data set [1] came to 1.5 h. Moreover, in [2], the Cmax came out at 0.99 µM. Further, the exposure (AUC) in data set [3] is 3.88 µM·h. The GI50 with U-251 was found to be 0.09 µM; in the data set with SW-620 [4], 0.5 µM; in the data set on M14 [5], 0.6 µM; in the data set with SK-OV-3 [6] it was 30 µM; in the data set with DU-145 [7], 0.5 µM; with A498 [8], 0.1 µM. Besides, the concentration for 50% growth inhibition (GI50) in data set [9] was 4.1 µM; with NCI-H522 [10], 0.25 µM; in the data set on NCI/ADR-RES [11], 0.8 µM. In addition, in data set [12], the half-life was 2.59 h.
With `CSc1ccc(C2=C(c3ccc(F)c(F)c3)C(=O)N3CCCC3C2)cc1` (stereo not given), the time to peak (Tmax) in data set [13] worked out at 0.29 h. In [14], this molecule registered a Cmax of 3.61 µM. Besides, the concentration for 50% growth inhibition (GI50) in the data set with U-251 was 15 µM; with SW-620 [4] it was 0.2 µM; in the data set with M14 [5], 0.3 µM; in the data set on SK-OV-3 [6], 0.1 µM; in the data set on DU-145 [7], 0.5 µM; with A498 [8], 0.1 µM. In addition, the GI50 in data set [9] was 2.1 µM; with NCI-H522 [10] it was 0.2 µM; in the data set with NCI/ADR-RES [11], 0.8 µM. In data set [15], this molecule registered an AUC of 6.92 µM·h.
Consider `CSc1ccc(C2=C(c3ccc(C(F)(F)F)cc3)C(=O)N3CCCC3C2)cc1` (stereo not given), for which the Tmax in data set [1] stood at 0.25 h. This molecule also came in with a peak concentration (Cmax) in data set [2] of 3.79 µM. In [3], this molecule registered an AUC of 10.7 µM·h. Moreover, the GI50 turned out to be 20 µM in the data set with A498 [16]; 0.8 µM with U-251; 0.7 µM in the data set with DU-145 [17]; 12 µM in the data set on M14 [18]; 0.8 µM in the data set on NCI/ADR-RES [19]; 15 µM in the data set on SK-OV-3 [20]. The 50% growth inhibitory concentration (GI50) was 0.8 µM with SW-620 [21], 6.3 µM in data set [9] and 0.8 µM in the data set on NCI-H522 [22]. Also, the half-life in [12] is 2.66 h.
Turning to `CSc1ccc(C2=C(c3ccc(C)cc3)C(=O)N3CCCC3C2)cc1` (stereo not given), the Tmax in data set [1] came to 0.25 h. The same molecule returned a Cmax in data set [2] of 8.02 µM. The molecule further showed an area under the curve (AUC) in [3] of 38.5 µM·h. Moreover, the GI50 in the data set on U-251 was found to be 0.4 µM; in the data set on SW-620 [4], 3 µM; in the data set with M14 [5], 6 µM; in the data set on SK-OV-3 [6] it was 9 µM; with DU-145 [7], 0.6 µM; with A498 [8] it was 4 µM. In addition, the results for the GI50 (in [9]; with NCI-H522 [10]; with NCI/ADR-RES [11]) were 3 µM, 0.9 µM and 0.6 µM, respectively. Moreover, in [12], the half-life was 6.24 h.
For `CSc1ccc(C2=C(c3ccc(O)cc3)C(=O)N3CCCC3C2)cc1` (stereo not given), the concentration for 50% growth inhibition (GI50) in the data set on U-251, in the data set on SW-620 [4], with M14 [5], in the data set on SK-OV-3 [6], with DU-145 [7] and in the data set with A498 [8] was above 100 µM throughout. The concentration for 50% growth inhibition (GI50) (in data set [9]; in the data set with NCI-H522 [10]; with NCI/ADR-RES [11]) was above 100 µM in each case.

(Values after ChEMBL document CHEMBL1136378, “Novel 6,7-diphenyl-2,3,8,8a-tetrahydro-1H-indolizin-5-one analogues as cytotoxic agents” (Bioorg Med Chem Lett, 2003).)
